In PubChem BioAssay (NCI):
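Values below derive from 48-hour exposures of cells grown in 96-well plates, with endpoints linearly interpolated between the two concentrations bracketing the appropriate inhibition level. At the GI50, growth is halved. The concentration for full growth arrest is given as TGI.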

What was measured:
Assay in all cases: DTP human tumour cell line panel, 48 h
HL-60(TB) leukemia = system: HL-60(TB) leukemia
NCI-H226 lung = system: NCI-H226 lung
SW-620 colon = system: SW-620 colon
EKVX NSCLC = system: EKVX NSCLC
ACHN renal = system: ACHN renal
HOP-62 NSCLC = system: HOP-62 NSCLC
BT-549 breast = system: BT-549 breast
M14 melanoma = system: M14 melanoma

SMILES	GI50 (HL-60(TB) leukemia)	TGI (HL-60(TB) leukemia)	GI50 (NCI-H226 lung)	TGI (NCI-H226 lung)	GI50 (SW-620 colon)	TGI (SW-620 colon)	GI50 (EKVX NSCLC)	TGI (EKVX NSCLC)	GI50 (ACHN renal)	TGI (ACHN renal)	GI50 (HOP-62 NSCLC)	TGI (HOP-62 NSCLC)	GI50 (BT-549 breast)	TGI (BT-549 breast)	GI50 (M14 melanoma)	TGI (M14 melanoma)
C#CCCCCCC(=O)N[C@H]1C=C[C@@H]2/C=C(C)/C=C/[C@@H](C)[C@H]([C@H](C)[C@H](O)[C@@H](C)NC(C)=O)OC(=O)/C=C/C=C(C)\C=C\[C@]2(C)C1	0.0335 µM	9.31 µM	0.00478 µM	6.05 µM	< 0.004 µM	> 40 µM	0.0213 µM	> 40 µM	< 0.004 µM	> 40 µM	0.0107 µM	> 40 µM	< 0.004 µM	> 40 µM	–	–
OCc1ccc(N2CCc3ccc(F)cc3C2)cc1Cl	1.12 µM	14.5 µM	0.0267 µM	0.114 µM	0.18 µM	11.2 µM	–	–	10.4 µM	23 µM	0.29 µM	15.5 µM	15.2 µM	29.3 µM	14.5 µM	30 µM
O=S(=O)(Nc1ccccc1)c1ccc(C2CC3(Cl)C(Cl)=C(Cl)C2(Cl)C3(Cl)Cl)cc1 (stereo not given)	2.42 µM	5.79 µM	1.87 µM	4.47 µM	–	–	3.02 µM	8.37 µM	3.37 µM	10.5 µM	2.52 µM	5.93 µM	2.46 µM	5.85 µM	2.19 µM	4.61 µM
C=CCN(CC=C)Cc1c[nH]c2ccccc12	84.2 µM	> 100 µM	–	–	26.3 µM	> 100 µM	–	–	36.3 µM	> 100 µM	–	–	2.31 µM	8.33 µM	–	–
COc1cc2c(cc1OCCN1CCN(CCN3C(=O)c4cccc5cccc(c45)C3=O)CC1)N=C[C@@H]1CCCN1C2=O	–	–	20.1 µM	40.3 µM	19.6 µM	40 µM	21.1 µM	45.7 µM	17.2 µM	31.5 µM	19.7 µM	34.9 µM	19 µM	34.9 µM	14.5 µM	28.7 µM
COc1cc2c(Oc3ccc(-c4cnc(Nc5ccc(F)cc5)n(C)c4=O)cc3F)ccnc2cc1OCCCN1CCOCC1	–	–	1.16 µM	8.15 µM	–	–	–	–	0.864 µM	2.15 µM	–	–	1.86 µM	3.49 µM	0.442 µM	1.82 µM
O=C1c2ccccc2-c2c1c1c(O)cccc1n2Cc1ccccc1	–	–	> 100 µM	> 100 µM	38 µM	> 100 µM	16.5 µM	69.2 µM	6.9 µM	23.8 µM	12.1 µM	29.8 µM	20.5 µM	56.1 µM	26.7 µM	> 100 µM
CCN1CCN(CC(=O)Nc2nc3ccc(NCc4ccc(Br)cc4)cc3s2)CC1	1.95 µM	3.81 µM	7.89 µM	> 100 µM	–	–	3.02 µM	> 100 µM	2.03 µM	4.4 µM	–	–	–	–	1.72 µM	3.63 µM
O=C1c2ccccc2N1C(=O)c1ccccc1[N+](=O)[O-]	–	–	–	> 100 µM	–	> 100 µM	–	> 100 µM	–	> 100 µM	–	> 100 µM	–	–	–	> 100 µM
c1cc(OCCCCCOc2cccc(-c3nc4ccccc4[nH]3)c2)cc(-c2nc3ccccc3[nH]2)c1	–	–	1.92 µM	> 100 µM	2.87 µM	> 100 µM	2.21 µM	6.97 µM	2.35 µM	46.2 µM	3.58 µM	> 100 µM	1.72 µM	5 µM	2.57 µM	> 100 µM
OC[C@H]1C[C@](O)(c2ccc(F)cc2)[C@@H](c2ccc(F)cc2)O1	> 100 µM	> 100 µM	> 100 µM	> 100 µM	> 100 µM	> 100 µM	> 100 µM	> 100 µM	> 100 µM	> 100 µM	> 100 µM	> 100 µM	> 100 µM	> 100 µM	–	–
O=[N+]([O-])c1ccc(/C=C(/c2ccc([N+](=O)[O-])o2)S(=O)(=O)c2ccccc2)cc1	–	74.1 µM	–	75 µM	–	> 100 µM	–	–	–	> 100 µM	–	> 100 µM	–	> 100 µM	–	> 100 µM
O=C1C[C@@H]2OCC=C3C[N+]4([O-])CC[C@]56c7ccccc7N1[C@H]5[C@H]2[C@H]3C[C@@H]64 (stereo not given in full)	> 100 µM	> 100 µM	> 100 µM	> 100 µM	> 100 µM	> 100 µM	> 100 µM	> 100 µM	> 100 µM	> 100 µM	> 100 µM	> 100 µM	–	–	> 100 µM	> 100 µM
CN(C)[C@@H]1C(=O)C(C(=O)NCc2nc3[nH]cnc(=S)c3[nH]2)=C(O)[C@@]2(O)C(=O)C3=C(O)c4c(O)cccc4[C@@](C)(O)[C@H]3C[C@@H]12	–	–	–	–	17 µM	> 100 µM	> 100 µM	> 100 µM	16.1 µM	> 100 µM	1.4 µM	> 100 µM	> 100 µM	> 100 µM	1.05 µM	> 100 µM
COc1cc(NC(=O)COc2ccccc2)c(C(N)=O)cc1OC	0.293 µM	7.25 µM	42.8 µM	> 100 µM	0.646 µM	> 100 µM	–	–	8.12 µM	> 100 µM	1.75 µM	24.3 µM	0.77 µM	> 100 µM	0.614 µM	> 100 µM
CN(C)CCCC1(c2ccc(F)cc2)OCc2cc(-c3csc4ccccc34)ccc21 (stereo not given)	1.77 µM	3.7 µM	1.8 µM	3.52 µM	1.63 µM	3.22 µM	1.51 µM	2.89 µM	1.64 µM	3 µM	1.57 µM	3.31 µM	–	–	1.66 µM	3.36 µM
COc1ccc(Cn2c(Br)c3c(c2-c2cc(OC)c(OC)c(OC)c2)CCc2sc(N)nc2-3)cc1	0.465 µM	3.67 µM	6.93 µM	> 50.6 µM	0.515 µM	7.65 µM	–	–	1.07 µM	25.7 µM	1.33 µM	> 47 µM	2.39 µM	9.09 µM	1.36 µM	> 44.9 µM
